The test system of experiment [1] is Cenchrus americanus. The experiment is described as follows: Induction of systemic acquired resistance against Sclerospora graminicola in Cenchrus americanus cultivar 7042S assessed as protection against downy mildew disease at 6 g/kg applied to seeds prior to sowing and to foliar of 7 day old seedling inoculated on day 2 measured on day 30 in field conditions (reference value: 3%). It is filed as functional.

Experiment [2] concerns Cenchrus americanus. Kind of experiment: Induction of systemic acquired resistance against Sclerospora graminicola in Cenchrus americanus cultivar 7042S assessed as protection against downy mildew disease at 6 g/kg applied to seeds prior to sowing followed by inoculation on 2 day old seedling measured on day 30 in green house condition(reference value: 3%). It is filed as functional.

In experiment [3] the test system is Cenchrus americanus. The experiment is described as follows: Induction of systemic acquired resistance against Sclerospora graminicola in Cenchrus americanus cultivar 7042S assessed as protection against downy mildew disease at 6 g/kg applied to seeds prior to sowing followed by inoculation on 2 day old seedling measured on day 30 in field conditions (reference value: 3%). It is filed as functional.

In experiment [4] the test system is Cenchrus americanus. The experiment is described as follows: Induction of systemic acquired resistance against Sclerospora graminicola in Cenchrus americanus cultivar 7042S assessed as protection against downy mildew disease at 6 g/kg applied to foliar of 7 day old seedling inoculated on day 2 measured on day 30 in field conditions (reference value: 2%). It is filed as functional.

Experiment [5] relates to Cenchrus americanus. Kind of experiment: Induction of systemic acquired resistance against Sclerospora graminicola in Cenchrus americanus cultivar 7042S assessed as protection against downy mildew disease at 20 mM applied to seeds prior to sowing followed by inoculation on 2 day old seedling measured on day 30 in green house conditions (reference value: 3%). It is filed as functional.

In experiment [6] the test system is Cenchrus americanus. Kind of experiment: Increase in seed vigor in Cenchrus americanus cultivar 7042S at 20 mM incubated for 6 hr followed by sowing measured at 7-day old seedling stage relative to control. It is filed as functional, organism-based.
For experiment [7], the system named is Cenchrus americanus. Kind of experiment: Stimulation of seed germination in Cenchrus americanus cultivar 7042S at 20 mM incubated for 6 hr followed by sowing measured at 7-day old seedling stage (reference value: 88%). It is filed as functional.
Experiment [8] has as its system Cenchrus americanus. Kind of experiment: Induction of systemic acquired resistance against Sclerospora graminicola in Cenchrus americanus cultivar 7042S assessed as protection against downy mildew disease at 20 mM applied to seeds prior to sowing followed by inoculation at cleoptile stage at day 1 post seedling emergence measured on day 30 in green house conditions relative to control. It is filed as functional.

The test system of experiment [9] is Cenchrus americanus. The experiment is described as follows: Effect on growth parameter in disease-susceptible Cenchrus americanus cultivar 7042S assessed as yield at 20 mM applied to seeds prior to sowing (reference value: 1209 +/- 9 kg/ha). It is filed as functional.
Experiment [10] has as its system Cenchrus americanus. The experiment is described as follows: Induction of systemic acquired resistance against Sclerospora graminicola in Cenchrus americanus cultivar 7042S assessed as protection against downy mildew disease at 20 mM applied to seeds prior to sowing followed by inoculation on 2 day old seedling and challenge-inoculation to the nodal tiller measured on day 60 in green house condition relative to control. It is filed as functional.

Experiment [11] relates to Cenchrus americanus. The experiment is described as follows: Induction of systemic acquired resistance against Sclerospora graminicola in Cenchrus americanus cultivar 7042S assessed as protection against downy mildew disease at 20 mM applied to seeds prior to sowing followed by inoculation on 2 day old seedling and challenge-inoculation to the inflorescence primordia at boot leaf stage measured on day 60 in green house condition relative to control. It is filed as functional.

The test system of experiment [12] is Cenchrus americanus. The experiment is described as follows: Stimulation of growth in downy mildew disease-susceptible Cenchrus americanus cultivar 7042S assessed as plant height at 20 mM applied to seeds prior to sowing measured after 60 days (reference value: 58.5 cm). It is filed as functional.
In experiment [13] the test system is Cenchrus americanus. Kind of experiment: Induction of systemic acquired resistance against Sclerospora graminicola in Cenchrus americanus cultivar 7042S assessed as protection against downy mildew disease at 20 mM applied to seeds prior to sowing followed by inoculation at cleoptile stage at day 2 post seedling emergence measured on day 30 in green house conditions relative to control. It is filed as functional.

In experiment [14] the test system is Cenchrus americanus. The experiment is described as follows: Induction of systemic acquired resistance against Sclerospora graminicola in Cenchrus americanus cultivar 7042S assessed as protection against downy mildew disease at 20 mM applied to seeds prior to sowing followed by inoculation at cleoptile stage at day 6 post seedling emergence measured on day 30 in green house conditions relative to control. It is filed as functional.

Experiment [15] has as its system Cenchrus americanus. Kind of experiment: Effect on growth parameter in disease-susceptible Cenchrus americanus cultivar 7042S assessed as girth of ear at 20 mM applied to seeds prior to sowing measured after 60 days (reference value: 3.6 +/- 0.9 cm). It is filed as functional.
Experiment [16] concerns Cenchrus americanus. The experiment is described as follows: Induction of systemic acquired resistance against Sclerospora graminicola in Cenchrus americanus cultivar 7042S assessed as protection against downy mildew disease at 20 mM applied to foliar of 7 day old seedling inoculated on day 2 measured on day 30 in field conditions (reference value: 2%). It is filed as functional.

In experiment [17] the test system is Cenchrus americanus. Kind of experiment: Induction of systemic acquired resistance against Sclerospora graminicola in Cenchrus americanus cultivar 7042S assessed as protection against downy mildew disease at 20 mM applied to seeds prior to sowing and to foliar of 7 day old seedling inoculated on day 2 measured on day 30 in field conditions (reference value: 3%). It is filed as functional.

For experiment [18], the system named is Cenchrus americanus. Kind of experiment: Induction of systemic acquired resistance against Sclerospora graminicola in Cenchrus americanus cultivar 7042S assessed as protection against downy mildew disease at 20 mM applied to seeds prior to sowing followed by inoculation on 2 day old seedling measured on day 30 in field conditions (reference value: 3%). It is filed as functional.

Experiment [19] concerns Cenchrus americanus. Kind of experiment: Induction of systemic acquired resistance against Sclerospora graminicola in Cenchrus americanus cultivar 7042S assessed as protection against downy mildew disease at 20 mM applied to seeds prior to sowing followed by inoculation at cleoptile stage at day 5 post seedling emergence measured on day 30 in green house conditions relative to control. It is filed as functional.

In experiment [20] the test system is Cenchrus americanus. The experiment is described as follows: Effect on growth parameter in disease-susceptible Cenchrus americanus cultivar 7042S assessed as weight of 1000 seeds at 20 mM applied to seeds prior to sowing (reference value: 7.4 +/- 1.4 g). It is filed as functional.
Experiment [21] concerns Cenchrus americanus. The experiment is described as follows: Induction of systemic acquired resistance against Sclerospora graminicola in Cenchrus americanus cultivar 7042S assessed as protection against downy mildew disease at 20 mM applied to seeds prior to sowing followed by inoculation at cleoptile stage at day 3 post seedling emergence measured on day 30 in green house conditions relative to control. It is filed as functional.

Experiment [22] deals with Cenchrus americanus. The experiment is described as follows: Effect on growth parameter in disease-susceptible Cenchrus americanus cultivar 7042S assessed as length of ear at 20 mM applied to seeds prior to sowing measured after 60 days (reference value: 9.4 +/- 0.8 cm). It is filed as functional.
For experiment [23], the system named is Cenchrus americanus. Kind of experiment: Effect on growth parameter in disease-susceptible Cenchrus americanus cultivar 7042S assessed as increase in prodcutive tillers at 20 mM applied to seeds prior to sowing measured after 60 days relative to control. It is filed as functional, organism-based.
Experiment [24] has as its system Cenchrus americanus. Kind of experiment: Induction of systemic acquired resistance against Sclerospora graminicola in Cenchrus americanus cultivar 7042S assessed as protection against downy mildew disease at 20 mM applied to seeds prior to sowing followed by inoculation at cleoptile stage at day 4 post seedling emergence measured on day 30 in green house conditions relative to control. It is filed as functional.

Experiment [25] has as its system Cenchrus americanus. Kind of experiment: Stimulation of flowering in downy mildew disease-susceptible Cenchrus americanus cultivar 7042S assessed as days required for 50% flowering at 20 mM applied to seeds prior to sowing measured after 60 days (reference value: 44 +/- 0.7 days ). It is filed as functional.
Experiment [26] deals with Cenchrus americanus. Kind of experiment: Effect on seed vigor in Cenchrus americanus cultivar 7042S assessed as vigor index at 20 mM incubated for 6 hr followed by sowing measured at 7-day old seedling stage (reference value: 990). It is filed as functional.

Activity calls are given as the source filed them. The rule behind the calls is not given here.

As to `COCC(=O)N(c1c(C)cccc1C)C(C)C(=O)OC` (stereo not given) [METALAXYL], the Activity in experiment [1] is given as 92%; in experiment [2] it was 92%; in experiment [3], 92%; in [4] it was 91%.
Take `Nc1nc(=O)c2nc(CNc3ccc(C(=O)N[C@@H](CCC(=O)O)C(=O)O)cc3)cnc2[nH]1` [FOLIC ACID]: the figures for the Activity in [5] and in [7] were 42% and 90%, respectively. For the same molecule, in [6], the outcome was Active.
In the case of `Cc1cc2nc3c(=O)[nH]c(=O)nc-3n(C[C@H](O)[C@H](O)[C@H](O)CO)c2cc1C` [RIBOFLAVIN], the Activity in experiment [8] was 43%; in [9], 1281 kg/ha; in experiment [5], 62%; in [10], 64%; in [11], 69%; in experiment [12], 62 cm. For the same molecule, the Activity in [13] is 50%; in [14] it was 63%; in experiment [15], 3.9 cm; in [16], 61%; in experiment [17], 67%; in experiment [18], 61%. For the same molecule, the Activity in experiment [19] worked out at 63%; in experiment [20] it was 9.5 g; in experiment [21] it was 55%; in experiment [22], 11.4 cm; in experiment [7] it was 92%; in [24], 63%. Besides, the result in experiment [23] was Active. Moreover, the Time in [25] was determined as 43 days.
`Cc1ncc(CO)c(CO)c1O` [PYRIDOXINE]: the Activity in experiment [5] was 44%; in experiment [7] it was 91%. For the same molecule, the result in experiment [6] was Active.
In the case of `CC1(S(=O)(=O)[O-])CC(=O)c2ccccc2C1=O.[Na+]` (stereo not given) [MENADIONE SODIUM BISULPHITE], the Activity in [8] was found to be 46%; in experiment [9], 1328 kg/ha; in experiment [5], 73%; in experiment [10], 77%; in [11], 79%; in [12] it was 68 cm. Moreover, the Activity in experiment [13] was found to be 51%; in [14], 74%; in experiment [15], 4.1 cm; in [16] it was 66%; in experiment [17] it was 72%; in experiment [18], 68%. Also, the Activity in experiment [19] was 74%; in experiment [20], 11.74 g; in [21], 65%; in experiment [22], 12 cm; in experiment [7], 93%; in experiment [24] it was 73%. The Vigour_index in [26] is recorded as 1312. Further, the outcome in experiment [23] was Active. The Time in experiment [25] worked out at 40 days.
Turning to `O=C(O)c1cccnc1` [NIACIN], the Activity came out at 45% in [8]; 1306 kg/ha in [9]; 63% in experiment [5]; 69% in [10]; 71% in experiment [11]; 66 cm in experiment [12]. In addition, the Activity in experiment [13] worked out at 51%; in [14], 63%; in experiment [15] it was 4 cm; in experiment [16], 60%; in [17], 65%; in [18], 63%. Also, the Activity in [19] is 63%; in experiment [20], 10.97 g; in experiment [21], 56%; in [22], 11.8 cm; in [7], 92%; in experiment [24], 63%. Moreover, the Vigour_index in experiment [26] is on record as 1217. Further, in experiment [23], the result was Active. The Time in experiment [25] was 42 days.
In the case of `O=C(O)CCCC[C@@H]1SC[C@@H]2NC(=O)N[C@@H]21` [BIOTIN], the Activity amounted to 51% in [5] and 91% in [7]. Besides, the result in [6] was Active.

Source of the values: ChEMBL document CHEMBL3044918, “Ability of vitamins to induce downy mildew disease resistance and growth promotion in pearl millet” (2007).
